Laboratory results as given in patent US9358281B2, “Methods, agents and peptides for inducing an innate immune response in HIV vaccination” (New York University, priority 2009, dated 2016).
“Also recorded” adds a separate entry of the source. Where two headings read alike, the source gives them in different places.

Key:
Type in all cases: cell-based, human
[1] = test system: monocyte-derived dendritic cells (MDDC); conditions: for effect on MDDC activation (CD86 in GFP+) by HIVGFP(G)+SIVVLP(G): inhibitor added within the first 24 hours of infection
[2] = test system: naive CD4+ T cells; experiment: Naive T cell proliferation assay (CFSE dilution) with infected DC and anti-CD3; conditions: 25 μM AZT or 1 μM SCY
Experimental: Naive T cell proliferation assay: 48 h after infection, naive T cells were labeled with CFSE (eBioscience) as described previously (Antons et al., 2008). DC were infected with dilutions of SIVVLP(G) and pLaiΔEnv-GFP3(G) WT (indicated as HIVGFP(G)) or G89V. AZT was added at the time of infection and SCY was added from 3 to 8 hours after infection. 48 hours after infection, half of the DC was processed for surface staining and cytometry. The other half was washed with media and resuspended in fresh media without cytokines. 20,000 T cells were mixed with DC at a DC to T ratio of 1:5 and 1:15. Cells were stimulated by dilutions of anti-CD3 (OKT3 hybridoma supernatant, approximately 1-100 ng/ml) in a total volume of 150 to 200 μl in round bottom 96-well plates. Cells were harvested and analyzed by flow cytometry at day 4 or day 5 postactivation.

[3] = test system: STAT1; experiment: Immunoblot of phospho-STAT1 over time in MDDC; conditions: after treatment or infection
Experimental: (§1) Western blot analysis: Cells were lysed in 1% NP-40, 50 mM Tris pH 8, 120 mM NaC, 4 mM EDTA, 50 mM NaF, 1 mM NA3VO4 and a protease inhibitors cocktail (Roche). Total lysates were resolved on SDS-PAGE, transferred to PVDF membranes and probed with primary antibodies and corresponding HRP-conjugated secondary antibodies.
as §1, with “NaCl,” for “NaC,”, “inhibitor” for “inhibitors”, “antibodies (GE Healthcare).” for “antibodies.”

| Compound | effect on LPS- or poly(I:C)-induced CD86 up-regulation [1] | effect on MDDC activation (CD86 in GFP+) by HIVGFP(G)+SIVVLP(G) [1] | ability of treated, HIVGFP(G) and SIVVLP(G) infected DC to induce proliferation [2] | effect on MDDC activation (CD86 in GFP+) by HIVGFP(G)+SIVVLP(G) ([1]; listed as Raltegravir) | time at which STAT1 phosphorylation was present [3] |
| --- | --- | --- | --- | --- | --- |
| Cc1cn([C@H]2C[C@H](N=[N+]=[N-])[C@@H](CO)O2)c(=O)[nH]c1=O [AZT, Zidovudine] | had no effect | blocked activation; also recorded: inhibited transduction efficiency and MDDC activation | reduced ability to induce proliferation | – | – |
| Cc1nnc(C(=O)NC(C)(C)c2nc(C(=O)NCc3ccc(F)cc3)c(O)c(=O)n2C)o1 [RAL, Raltegravir] | had no effect | blocked activation | – | inhibited transduction efficiency and MDDC activation | – |
| lipopolysaccharide [LPS] | – | – | – | – | 2 h |
